Results published in patent US10124033B2, “Peptides and methods of use” (BAXALTA INCORPORATED, priority 2014, dated 2018).
pEC50, pKd: −log10 of the molar value. Read-outs that look alike come from different tables or passages of the source. Residues, ends and D or L forms follow the SMILES beside them.

Key:
[1] = target: T1, Protein S/APC cofactor activity (Homo sapiens, UniProt P07225); test: CAT assay in pooled normal plasma supplemented with 3 nM APC; type: biochemical; conditions: 6 pM TF, 15 μM phospholipids
T1 construct: host or cells: plasma
T1 sequence (P07225 41-676 limits assumed): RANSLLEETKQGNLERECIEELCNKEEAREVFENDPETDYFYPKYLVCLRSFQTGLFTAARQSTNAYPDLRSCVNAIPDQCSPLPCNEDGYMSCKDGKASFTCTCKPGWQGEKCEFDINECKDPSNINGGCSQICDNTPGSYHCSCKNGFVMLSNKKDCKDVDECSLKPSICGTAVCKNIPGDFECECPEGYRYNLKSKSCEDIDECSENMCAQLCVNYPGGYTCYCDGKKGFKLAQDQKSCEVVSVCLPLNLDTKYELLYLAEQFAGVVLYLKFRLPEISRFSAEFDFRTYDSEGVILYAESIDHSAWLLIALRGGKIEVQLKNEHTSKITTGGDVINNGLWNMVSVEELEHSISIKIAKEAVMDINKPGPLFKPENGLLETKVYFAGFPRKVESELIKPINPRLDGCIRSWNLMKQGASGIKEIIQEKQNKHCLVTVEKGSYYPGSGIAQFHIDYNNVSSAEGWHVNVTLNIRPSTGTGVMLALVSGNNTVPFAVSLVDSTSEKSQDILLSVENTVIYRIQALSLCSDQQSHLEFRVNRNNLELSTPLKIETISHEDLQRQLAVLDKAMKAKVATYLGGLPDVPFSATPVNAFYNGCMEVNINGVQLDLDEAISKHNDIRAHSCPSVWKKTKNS
Description: Peptides also were tested for improvement of Protein S/APC-dependent thrombin generation in hemophilic plasma using a CAT assay. Protein S enhances the anticoagulation of APC in plasma. The CAT assay quantifies the effect of Protein S on APC-mediated thrombin generation initiated via the extrinsic coagulation pathway (Nicolaes, Blood Coagul. Fibrinolysis, 8:28 (1997)). APC (35 nM) and Protein S (25 nM) was added to Protein 5-depleted plasma, and plasma samples were incubated with high titer heat inactivated anti-human FVIII plasma raised in goat (4490 BU/ml; Baxter BioScience, Vienna, Austria; 50 BU/ml final plasma concentration). Thrombin formation in plasma was followed by calibrated automated thrombography (CAT) in a Fluoroskan Ascent® reader (Thermo Labsystems, Helsinki, Finland) and quantified via the thrombin peak-height. Thrombin generation was determined at high tissue factor (TF) concentration in the absence and in the presence of APC at a concentration that reduces the peak height to 20%. The inhibitory effect of peptides described herein on the APC cofactor activity of Protein S (PS) in plasma was measured in FVIII-inhibited pooled normal plasma supplemented with APC. Complete (100%) Protein S/APC inhibition is the height of the thrombin peak without addition of APC. Lack of (0%) PS/APC inhibition correlates to the thrombin peak-height value with a certain amount of APC. Peptides were ranked by their normalized values in comparison to the mean of wild-type controls including SD at two defined peptide concentrations (EC50 and EC90). […] For the assays, pooled normal plasma was supplemented with 3 nM APC and triggered with 6 pM TF, and 15 μM phospholipids (DOPC/POPS 80/20). Stock APC was diluted with TF-PL-MIX to 24 nM (plasma concentration: 3 nM).

[2] = plasma stability in mouse plasma; type: in vitro ADME; conditions: 37° C.
Description: (§1) Affinity and activity of all 18 peptides was improved compared to parent JBS2572. […] Activity and stability were improved up to 1.5-fold. Plasma stability was determined in pooled normal human plasma and mouse plasma at 37° C.; exemplary results also are provided in Table 3.

[3] = target: T2, human full-length Protein S (Homo sapiens, UniProt P07225); test: Biacore (surface plasmon resonance) on immobilized Protein S; type: binding; conditions: Biacore; for koff / kon: Table 3; for pKd: affinity-matured and modified peptides, read-out: KD
T2 construct: using human full-length Protein S and human GAS6
T2 sequence (P07225 41-676 limits assumed): T1 sequence (P07225 41-676 limits assumed)
Description: (§2) Protein S affinity also was determined via Biacore (Biacore 3000 or Biacore T200) using human full-length Protein S and human GAS6. Briefly, 1000 RU of Protein S or GAS6 were immobilized on a CMS chip. In order to probe the kinetics of Protein S binding peptides to Protein S, the peptides were injected at various concentrations in a HBS-buffer containing 3 mM CaCl2 and 1% DMSO to the flow cell and allowed to interact with the immobilized proteins on the sensor chip. The chip could be regenerated with 4 M MgCl2 in HBS-buffer. Sensorgrams were fitted to a Langmuir binding model for the determination of kon and koff and the calculation of KD. Peptides were tested on their specificity to Protein S with peptide binding studies on the anti-target GAS6.

[4] = plasma stability in pooled normal human plasma; type: in vitro ADME; conditions: pooled normal human plasma, 37° C., 6 hours
Description: as §1

human GAS6 = target: T3, human GAS6 (Homo sapiens, UniProt Q14393); test: Biacore binding to anti-target GAS6; conditions: 1 μM peptide; sensorgrams reviewed visually
T3 sequence (Q14393 31-678): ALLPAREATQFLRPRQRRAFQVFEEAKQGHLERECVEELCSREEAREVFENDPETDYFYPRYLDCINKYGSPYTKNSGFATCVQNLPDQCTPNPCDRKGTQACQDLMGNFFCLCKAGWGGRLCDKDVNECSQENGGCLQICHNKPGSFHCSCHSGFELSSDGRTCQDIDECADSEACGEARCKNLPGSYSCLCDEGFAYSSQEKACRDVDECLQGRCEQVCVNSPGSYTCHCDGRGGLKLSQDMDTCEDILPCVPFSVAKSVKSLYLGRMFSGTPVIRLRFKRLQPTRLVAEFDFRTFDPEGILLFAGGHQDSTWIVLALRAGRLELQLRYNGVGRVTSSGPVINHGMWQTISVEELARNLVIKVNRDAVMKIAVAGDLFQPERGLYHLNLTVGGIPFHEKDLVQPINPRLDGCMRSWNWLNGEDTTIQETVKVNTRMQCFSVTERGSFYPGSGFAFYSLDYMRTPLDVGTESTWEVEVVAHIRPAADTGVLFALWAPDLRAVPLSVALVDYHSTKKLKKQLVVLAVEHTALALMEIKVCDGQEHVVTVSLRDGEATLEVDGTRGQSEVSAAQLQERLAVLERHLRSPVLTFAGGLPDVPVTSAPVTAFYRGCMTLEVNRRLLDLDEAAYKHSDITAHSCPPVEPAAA
Description: as §2
Interactions with the anti-target GAS6 were measured via Biacore (surface plasmon resonance) (see Example 2). The maximum signal from the interaction of the peptides with human GAS6 was much lower than the signals obtained with Protein S as interaction partner. Kinetic analysis of the low GAS6 binding signals was error prone, and sensorgrams were reviewed visually to estimate anti-target binding. […] The affinity of JBS2572 for the anti-target was at least 10 times less (indeed, at least 150 times less) than the affinity of the peptides for human Protein S. The data provided by this example confirm that peptides described herein specifically bind Protein S.

Row | Molecule | pEC50 [1] | Stability in mouse plasma; 4 hours [%] [2] | koff ([3]; read-out: koff) | kon ([3]; read-out: kon) | pKd [3] | Stability in human plasma; 6 hours [%] [4] | koff [3] | kon [3] | binding to GAS6 (human GAS6)
1 | CC(=O)N[C@H](C(=O)NCC(=O)N[C@@H](CC(C)C)C(=O)N[C@H](C(=O)N[C@@H](CO)C(=O)N[C@@H](C)C(=O)NCC(=O)N[C@@H](Cc1c[nH]c2ccccc12)C(=O)N[C@@H](Cc1ccc(O)cc1)C(=O)N[C@@H](CC(=O)O)C(=O)N[C@@H](Cc1ccc(O)cc1)C(=O)N[C@@H](CC(N)=O)C(=O)N[C@@H](Cc1ccccc1)C(=O)N[C@@H](CC(=O)O)C(=O)N[C@H](C(=O)N[C@@H](Cc1ccc(O)cc1)C(=O)N[C@H](C(=O)N[C@@H](CCC(=O)O)C(=O)N[C@@H](Cc1ccccc1)C(=O)N[C@H](C(N)=O)[C@@H](C)O)[C@@H](C)O)[C@@H](C)O)C(C)C)[C@@H](C)O [JBS3188] (Ac-TGLVSAGWYDYNFDTYTEFT-NH2) | 6.81 | – | – | – | – | – | – | – | –
2 | CC[C@H](C)[C@H](NC(=O)[C@H](CC(=O)O)NC(=O)[C@H](CCCCN)NC(=O)[C@H](CC(N)=O)NC(=O)[C@H](Cc1ccc(O)cc1)NC(=O)[C@H](CC(=O)O)NC(=O)[C@H](Cc1ccc(O)cc1)NC(=O)[C@H](Cc1c[nH]c2ccccc12)NC(=O)CNC(=O)[C@H](C)NC(=O)[C@@H](NC(=O)[C@@H](NC(=O)[C@@H](NC(=O)[C@H](Cc1ccc(O)cc1)NC(=O)[C@H](CCC(=O)O)NC(C)=O)[C@@H](C)CC)C(C)C)[C@@H](C)O)C(=O)N[C@@H](Cc1ccc(O)cc1)C(=O)N[C@@H](Cc1ccc(O)cc1)C(=O)N[C@@H](CCC(=O)O)C(=O)N[C@@H](Cc1ccccc1)C(=O)N[C@@H](CCCCN)C(N)=O [JBS3263] (Ac-EYIVTAGWYDYNKDIYYEFK-NH2) | – | 56 ± 6% | 0.000264 s⁻¹ | 629000 M⁻¹ s⁻¹ | 9.40 | 74 ± 12% | – | – | –
3 | CC[C@H](C)[C@H](NC(=O)[C@H](C)NC(C)=O)C(=O)N[C@@H](Cc1ccc(O)cc1)C(=O)N[C@H](C(=O)N[C@H](C(=O)N[C@@H](C)C(=O)NCC(=O)N[C@@H](Cc1c[nH]c2ccccc12)C(=O)N[C@@H](Cc1ccc(O)cc1)C(=O)N[C@@H](CC(=O)O)C(=O)N[C@@H](Cc1ccc(O)cc1)C(=O)N[C@@H](CC(N)=O)C(=O)N[C@@H](CC(N)=O)C(=O)N[C@@H](CC(=O)O)C(=O)N[C@H](C(=O)N[C@@H](Cc1ccc(O)cc1)C(=O)N[C@@H](Cc1ccc(O)cc1)C(=O)N[C@@H](CCC(=O)O)C(=O)N[C@@H](Cc1ccccc1)C(=O)N[C@H](C(N)=O)[C@@H](C)O)[C@@H](C)O)[C@@H](C)O)C(C)C [JBS3283] (Ac-AIYVTAGWYDYNNDTYYEFT-NH2) | – | 94 ± 6% | 0.000322 s⁻¹ | 735000 M⁻¹ s⁻¹ | 9.40 | 90 ± 9% | – | – | –
4 | CC(=O)N[C@@H](Cc1c[nH]cn1)C(=O)N[C@@H](Cc1c[nH]c2ccccc12)C(=O)N[C@@H](Cc1ccc(O)cc1)C(=O)N[C@H](C(=O)N[C@@H](CO)C(=O)N[C@@H](C)C(=O)NCC(=O)N[C@@H](Cc1c[nH]c2ccccc12)C(=O)N[C@@H](Cc1ccc(O)cc1)C(=O)N[C@@H](CC(=O)O)C(=O)N[C@@H](Cc1ccc(O)cc1)C(=O)N[C@@H](CC(N)=O)C(=O)N[C@@H](CCC(=O)O)C(=O)N[C@@H](CC(=O)O)C(=O)N[C@@H](CCCCN)C(=O)N[C@@H](Cc1ccc(O)cc1)C(=O)N[C@@H](Cc1ccc(O)cc1)C(=O)N[C@@H](CCC(=O)O)C(=O)N[C@@H](Cc1ccccc1)C(=O)N[C@@H](CCC(=O)O)C(N)=O)C(C)C [JBS3306] (Ac-HWYVSAGWYDYNEDKYYEFE-NH2) | – | 80 ± 14% | 0.000402 s⁻¹ | 1e+06 M⁻¹ s⁻¹ | 9.40 | 84 ± 12% | – | – | –
5 | JBS3318: JBS3319 conjugated to 40 kD PEG moiety (Ac-EYYVSAGWYDYNTDTYYEFEC-NH2; not fully specified (residue 21)) | – | 102 ± 20% | – | – | – | 114 ± 8% | 0.000213 s⁻¹ | 152000 M⁻¹ s⁻¹ | not to interact
6 | JBS3321: tetramer of JBS3319 monomers together with a four arm 10 kD PEG moiety (Ac-EYYVSAGWYDYNTDTYYEFEC-NH2; not fully specified (residue 21); also: tetramer: four chains joined through C-terminal Cys maleimide to a four-arm 10 kD PEG core) | – | 94 ± 12% | – | – | – | 99 ± 6% | 3.88e-05 s⁻¹ | 1.58e+06 M⁻¹ s⁻¹ | –
7 | JBS3322: JBS3206 monomer comprising a 40 kD PEG moiety (Ac-EYIVTAGWYDYNKDIYYEFKC-NH2; not fully specified (residue 21)) | – | 91 ± 26% | – | – | – | 131 ± 14% | 0.000278 s⁻¹ | 78000 M⁻¹ s⁻¹ | not to interact
